From publication PMC4613240, “A Series of New Ligustrazine-Triterpenes Derivatives as Anti-Tumor Agents: Design, Synthesis, and Biological Evaluation” (International Journal of Molecular Sciences, 2015) come the findings set out here.

For test [1], the system named is Bel-7402 (human hepatocellular carcinoma). The test is described as follows: MTT cytotoxicity assay, Bel-7402. In kind it is cell-based. The conditions noted are these: maximal tested concentration 20.0 μM. The method, then: (§1) The cytotoxicity of ligustrazine-triterpenes derivatives was evaluated on five tumor cell lines (Bel-7402, HepG2, HT-29, Hela, and MCF-7) using the standard MTT assay. In the study, the antineoplastic drug cisplatin (DDP) was selected as the positive control. The MDCK cell line was used to test the toxicity of the ligustrazine-triterpenes derivatives and DDP.
(§2) The cell lines Bel-7402 (human hepatocellular carcinoma), HepG2 (human hepatocellular carcinoma), HT-29 (human colon carcinoma), Hela (human cervical cancer), MCF-7 (human breast cancer) were included in this study. All these cell lines were provided by the Chinese Academy of Medical Sciences & Peking Union Medical College. Cultures were maintained as monolayers in RPMI 1640 supplemented with 10% (v/v) heat inactivated fetal bovine serum and 1% (v/v) enicillin/streptomycin (Thermo Technologies, New York, NY, USA) at 37 °C in a humidified atmosphere with 5% CO2. The ligustrazine derivatives under study were dissolved in DMSO (Sigma, St. Louis, MO, USA) and added at required concentrations to the cell culture. Cells incubated without the preparations served as the control.
(§3) The cytotoxicity of the compounds was evaluated on five cancer cell lines (Bel-7402, HepG2, HT-29, Hela, MCF-7) by the standard MTT assay. In short, exponentially growing cells were seeded into 96-well plates at a density 10^4 cells/mL. The plates were incubated at 37 °C in a humidified 5% CO2 atmosphere. Cells were allowed to adhere to the surface for 24 h and then treated with serial dilutions of the compounds for 72 h. Later, aliquots of [3-(4,5-dimethylthiazol-2-yl)-2,5-diphenyltetrazolium bromide] (MTT) solution (20 μL, 5 mg/mL) were added to each well and the incubation was continued for an additional 4 h. Then the supernatant medium was thrown away. The dark blue formazan crystals formed within the healthy cells were solubilized with DMSO (150 μL) and the absorbance was measured in a plate reader (BIORAD 550 spectrophotometer, Bio-rad Life Science Development Ltd., Beijing, China) at 490 nm. Wells containing no drugs were used as control group. The IC50 values were defined as the concentration of compounds that produced a 50% reduction of surviving cells and calculated using Logit-method. Tumor cell growth inhibitory rate was calculated in the following Equation (1): % inhibition = (1 − Sample group OD/Control group OD) × 100% (1)

Test [2] deals with MCF-7 (human breast cancer). The test can be described thus: MTT cytotoxicity assay, MCF-7. In kind it is cell-based. The conditions noted are these: maximal tested concentration 20.0 μM. On the procedure: as §1, §2, §3
Test [3] deals with Hela (human cervical cancer). The test can be described thus: MTT cytotoxicity assay, Hela. In kind it is cell-based. The conditions noted are these: 72 h, maximal tested concentration 20.0 μM. On the procedure: as §1, §2, §3
Test [4] has as its system Madin-Darby canine kidney cell line (MDCK). The test can be described thus: MTT cytotoxicity (nephrotoxicity/selectivity) assay, MDCK. In kind it is cell-based. The conditions noted are these: Canis lupus familiaris.
Test [5] concerns HepG2 cells. The test can be described thus: Apoptosis analysis by flow cytometry using Annexin V-FITC/PI staining. To be noted: 72 h, control 6%. In kind it is cell-based, human. On the procedure:
To substantiate the ability of 4a to induce apoptosis, further analysis was carried out using Annexin V-FITC/PI double staining technique in HepG2 cells. Cells stained with Annexin V-FITC and PI were classified as necrotic (Q1; Annexin^−/PI^+), late apoptotic (Q2; Annexin^+/PI^+), intact (Q3; Annexin^−/PI^−), or early apoptotic (Q4; Annexin^+/PI^−) cells. […] Even at the minimum concentration of 5 μM, 4a induced cell apoptosis at a ratio of 75.7% after 72 h of treatment.
The Annexin V-FITC/PI flow cytometric assay was performed to determine the early and late apoptosis in this assay according to the instruction of the manufacturer (Annexin V-FITC/PI, Beijing BioDee Biotech. Co., Ltd., Beijing, China). Briefly, HepG2 cells were treated with various concentrations of compound 4a (5, 6, 7 μM) for 72 h at 37 °C, then the treated cells were washed twice with cold PBS and centrifuged at 1000 rpm for 5 min. The harvested cells were resuspended in 200 μL binding buffer, containing 10 μL Annexin V-FITC. After 15 min, the cells were washed twice and resuspended in 300 μL binding buffer. At the same time, 10 μL PI was added. Then the cells were immediately analyzed with a flow cytometry.

Test [6] concerns HepG2 cells. The test is described as follows: Morphological observation using Giemsa staining. The conditions noted are these: HepG2, 2, 4, 8 μM for 72 h. In kind it is cell-based, human. On the procedure: The morphological changes in HepG2 cells were examined by Giemsa staining. HepG2 cells were seeded in 6-well plates. The cell density was adjusted to 4 × 10^3/well and incubated overnight. After 72 h reaction with certain concentrations of 4a (2, 4, 8 μM), cells were washed with PBS and fixed with cold methanol for 10 min. Methanol was discarded and cells were air-dried. Then fixed cells were stained with 6% Giemsa (Giemsa, Molecular Probes/Invitrogen Life Technologies, Carlsbad, CA, USA) solution for 5 min, washed with water and dried. The cell morphological changes were observed and photographed under a light microscope.

The subject of test [7] is HepG2 cells. The test can be described thus: Morphological observation using AO/EB double staining. To be noted: HepG2, 2, 4, 8 μM for 72 h. In kind it is cell-based, human. The method, then: To further characterize 4a-induced HepG2 cell apoptosis, the changes in cell morphology of the treated cells were determined using AO/EB double staining. AO is a vital dye that stains both live and dead cells as it can penetrate normal cell membrane. EB stains only cells that have lost their membrane integrity. Cells that stained green indicate viable cells, yellow indicate early apoptosis and orange/red indicate late apoptosis.
Apoptotic study was performed using AO/EB double staining. HepG2 cells were seeded in six well plates at a density of 1 × 10^4 cells/well and allowed to grow for 24 h. Then the cells were incubated in the presence of 4a at various concentrations (2, 4, 8 μΜ) at 37 °C and 5% CO2 for 72 h. After the treatment period, cells were collected and centrifuged; then the cells were suspended in phosphate-buffer saline (PBS) and centrifuged again. The liquid was removed; the cells were suspended in PBS. Then AO/EB (AO/EB, Sigma, USA) solution (1:1 v/v) was added to the cell suspension in a final concentration of 100 μg/mL. Cell morphologies were assessed under a fluorescent microscope.

For the compound `C=C(C)[C@@H]1CC[C@]2(C(=O)OCc3nc(C)c(C)nc3C)CC[C@]3(C)C(CCC4[C@@]5(C)CC[C@H](O)C(C)(C)C5CC[C@]43C)C12` (stereo partly drawn) [Compound 4a, 3β-Hydroxy-lup-20(29)-ene-28-oic acid-3,5,6-trimethylpyrazin-2-methyl ester], the half-maximal inhibitory concentration (IC50) in test [1] (72 h) is 4.19 µM; in test [1] (Homo sapiens, Bel-7402, 72 h), below 5.23 µM; in test [2] (72 h) it was 4.23 µM; in test [2] (Homo sapiens, MCF7, 72 h) it was below 5.23 µM; in test [3], 4.34 µM; in test [3] (Homo sapiens, HeLa) it was below 5.23 µM. Besides, the IC50 in test [4] (maximal tested concentration 20.0 μM, toxicity to MDCK kidney cells) was above 20 µM. Moreover, in test [4] (MDCK, 10 μM, read-out: inhibition rate against MDCK), the inhibition at 10 µM was around 26.5%. In addition, the “apoptosis ratio (early and late apoptosis)” value came to 75.7% in test [5] (HepG2, 5 μM); 76.6% in test [5] (HepG2, 6 μM); 83.7% in test [5] (HepG2, 7 μM). The “cell morphology after Giemsa staining” value in test [6] was “evident nuclear fragmentation, chromatin condensation in a dose dependent manner”. For the same compound, in test [7], the “cell morphology after AO/EB double staining” value was “increased number of orange- and red-stained cells in a dose dependent manner”.
